We go through four molecules from patent US8618100B2, “Compounds with antibacterial activity against Clostridium” (Elanco Animal Health Ireland Limited, priority 2010, dated 2013).

The subject of data set [1] is Staphylococcus epidermidis. Briefly: In-vitro test against several bacteria (D.1.3): S. epidermidis. The conditions noted are these: for IC90: Staphylococcus epidermidis, read-out: IC90 against S. epidermidis.
In the next data set the test system is Acinetobacter baumanii. The experiment in a line: In-vitro test against several bacteria (D.1.3): A. baumanii. It counts as cell-based. Particulars: Acinetobacter baumannii; Gram negative; Nutrient broth; 20-24 hours aerobic. On the procedure:
(§1) The plates were incubated at 37° C.

The subject of a further data set is Pseudomonas aeruginosa. The experiment in a line: In-vitro test against several bacteria (D.1.3): P. aeruginosa. The conditions noted are these: read-out: IC90 against P. aeruginosa.
Data set [2] deals with Clostridium difficile (ATCC9689). Briefly: In-vitro anti-bacterial activity against C. difficile (D.1.2). The format is cell-based. The conditions noted are these: Clostridioides difficile, Reinforced Clostridial broth, 37° C., 48 hours, anaerobic, OD 570 nm.
Another data set has as its system Bacillus subtilis. Briefly: In-vitro test against several bacteria (D.1.3): B. subtilis. Particulars: read-out: IC90 against B. subtilis.
The subject of the next data set is Listeria monocytogenes. Briefly: In-vitro test against several bacteria (D.1.3): L. monocytogenes. Particulars: read-out: IC90 against L. monocytogenes.
Data set [3] relates to Clostridium perfringens (strain 56). The experiment in a line: microbe, parasite or virus in culture. The conditions noted are these: 24 h, read-out: IC90 against C. perfringens. The format is cell-based.
Another data set relates to Enterococcus faecalis. The experiment in a line: In-vitro test against several bacteria (D.1.3): E. faecalis. Particulars: Gram positive, Todd Hewitt medium, 20-24 hours in 5% CO2; for IC90: Enterococcus faecalis. It counts as cell-based. On the procedure: (§2) The plates were incubated at 37° C. […] Enterococcus faecalis, Streptococcus pneumonia: Todd Hewitt medium; incubation for 20-24 hours in 5% CO2.

The next data set deals with Streptococcus pneumonia. The experiment in a line: In-vitro test against several bacteria (D.1.3): S. pneumonia. It counts as cell-based. The conditions noted are these: Gram positive, Todd Hewitt medium, 20-24 hours in 5% CO2; for IC90: Streptococcus pneumoniae. On the procedure: as §2
Data set [4] has as its system Methicillin-Resistant Staphylococcus aureus. The experiment in a line: In-vitro test against several bacteria (D.1.3): Methicillin-Resistant S. aureus. The conditions noted are these: for IC90: Staphylococcus aureus, read-out: IC90 against Methicillin-Resistant S. aureus.
Another data set deals with Staphylococcus aureus. The experiment in a line: In-vitro test against several bacteria (D.1.3): S. aureus. Particulars: for IC90: Staphylococcus aureus, read-out: IC90 against S. aureus.
In another data set the test system is Escherichia coli. Briefly: In-vitro test against several bacteria (D.1.3): E. coli. Particulars: read-out: IC90 against E. coli.
Another data set has as its system Mycobacterium smegmatis. The experiment in a line: In-vitro test against several bacteria (D.1.3): M. smegmatis. The format is cell-based. Particulars: Mycolicibacterium smegmatis; Mueller Hinton medium; 48 hours aerobic. On the procedure:
The plates were incubated at 37° C. […] Mycobacterium smegmatis: Mueller Hinton medium; incubation for 48 hours in aerobic conditions.

For a further data set, the system named is Moraxella catarrhalis. Briefly: In-vitro test against several bacteria (D.1.3): M. catarrhalis. The format is cell-based. Particulars: Gram negative, Brain heart Infusion medium, 20-24 hours aerobic, read-out: IC90 against M. cattarhalis. On the procedure:
as §1

The test system of the next data set is Klebsiella pneumoniae. Briefly: In-vitro test against several bacteria (D.1.3): K. pneumoniae. The conditions noted are these: read-out: IC90 against K. pneumoniae.
[5] abbreviates: Gram positive, Mueller Hinton medium, 20-24 hours aerobic.

≈ marks a conversion by molar mass, not a printed value. Some results are limits rather than exact numbers.

Broadly, the melting point is the temperature of the solid-liquid transition. `CNc1nc(NCCCN[C@@H]2CCOc3c(Br)cc(Br)cc32)nc2c(Cl)cnn12` [(3)] showed a melting point of 108.8 to 118.6 °C.

Take `Nc1nc(NCCCN[C@@H]2CCOc3c(Br)cc(Br)cc32)nc2c(Cl)cnn12` [(4)]: the melting point is 78.7 to 94.1 °C.

The IC90 is the concentration at which the effect reaches the 90% level. Take `Cl.Oc1nc(NCCCN[C@@H]2CCOc3c(Br)cc(Br)cc32)nc2ccnn12` [Compound (2)]: the melting point fell in the range of 234.6 to 235.6 °C. For the same molecule, the IC90 in data set [1] stood at 15 µg/mL. The IC90 with Acinetobacter baumanii was more than 64 µg/mL. For the same molecule, the IC90 in the data set on Pseudomonas aeruginosa is more than 75 µg/mL. This molecule also registered an IC90 in data set [2] of 2 µg/mL. The IC90 with Bacillus subtilis was determined as 4 µg/mL. The IC90 in the data set on Listeria monocytogenes is 2 µg/mL. For the same molecule, the IC90 in data set [3] worked out at 0.5 µg/mL. The molecule also gave an IC90 in the data set with Enterococcus faecalis of 1.5 µg/mL. Further, in the data set on Streptococcus pneumonia, the “IC90 against S. pneumonia” value is more than 31 µg/mL and the IC90 is more than 31 µg/mL. In [4], the IC90 is 7 to 13 µg/mL. The IC90 in the data set with Staphylococcus aureus was in the range of 8 to 15 µg/mL. In the data set with Escherichia coli, the IC90 was more than 31 µg/mL. Moreover, the IC90 in the data set on Mycobacterium smegmatis was more than 31 µg/mL. In the data set on Moraxella catarrhalis, the IC90 worked out at 16 µg/mL. For the same molecule, in the data set on Klebsiella pneumoniae, the IC90 is more than 64 µg/mL.

Consider `O=c1cc(NCCCN[C@@H]2CCOc3c(Br)cc(Br)cc32)[nH]c2ccsc12` [REP3123, 5-[3-((R)(+)-6,8-dibromo-chroman-4-ylamino)-propylamino]-4H-thieno[3,2-b]pyridine-7-one], for which the “IC90 against S. epidermidis” value in data set [1] (setting [5]) is less than 0.25 µg/mL. In addition, the IC90 in data set [1] was less than 0.25 µg/mL; in the data set on Acinetobacter baumanii, more than 64 µg/mL; with Pseudomonas aeruginosa, more than 78 µg/mL; in data set [2] it was 0.5 to 1 µg/mL (≈ 0.974 to 1.95 µM); with Bacillus subtilis, 0.12 µg/mL (≈ 0.234 µM); in the data set with Listeria monocytogenes, 0.12 µg/mL (≈ 0.234 µM). Moreover, the IC90 in data set [3] was 0.25 µg/mL (≈ 0.487 µM); with Enterococcus faecalis, less than 0.25 µg/mL; in the data set on Streptococcus pneumonia it was 1 µg/mL (≈ 1.95 µM); in data set [4] it was less than 0.25 µg/mL; in the data set on Staphylococcus aureus, less than 0.25 µg/mL; in the data set on Escherichia coli it was more than 32 µg/mL. Also, the IC90 was 6 to 8 µg/mL (≈ 11.7 to 15.6 µM) in the data set with Mycobacterium smegmatis, 16 µg/mL (≈ 31.2 µM) in the data set on Moraxella catarrhalis and more than 64 µg/mL with Klebsiella pneumoniae. Also, the “IC90 against E. faecalis” value in the data set on Enterococcus faecalis is less than 0.25 µg/mL. For the same molecule, the “IC90 against Methicillin-Resistant S. aureus” value in [4] (setting [5]) was less than 0.25 µg/mL. Moreover, in the data set with Staphylococcus aureus (setting [5]), the “IC90 against S. aureus” value is less than 0.25 µg/mL.
